According to the supplement of paper PMC8967900:

Legend:
Assay in all cases: selective drug sensitivity score (sDSS, relative to normal bone marrow) (sDSS (score)); higher = more potent and effective on the cell line relative to normal bone marrow cells
Details in all cases: 72 h
P30-OHKUBO = tested on: P30-OHKUBO
MHH-CALL-2 = tested on: MHH-CALL-2
CCRF-CEM = tested on: CCRF-CEM
KASUMI-10 = tested on: KASUMI-10
SEM cells = tested on: SEM cells
380 = tested on: 380
MHH-CALL-4 = tested on: MHH-CALL-4
MHH-CALL-3 = tested on: MHH-CALL-3
TMD5 = tested on: TMD5
ALL-SIL = tested on: ALL-SIL
COG-LL-319h = tested on: COG-LL-319h
MOLT-14 = tested on: MOLT-14
MN-60 = tested on: MN-60
PEER = tested on: PEER
COG-LL-332h = tested on: COG-LL-332h
RCH-ACV = tested on: RCH-ACV
MOLT-16 = tested on: MOLT-16
COG-LL-394h = tested on: COG-LL-394h
TANOUE = tested on: TANOUE
REH = tested on: REH
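Note: ALL cell lines in 384-well plates, five doses spanning 10,000-fold, each plate scaled between vehicle and 100 µmol/L benzalkonium chloride controls, sDSS an adapted area-under-curve metric.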

Structure (SMILES)	selective drug sensitivity score (P30-OHKUBO)	selective drug sensitivity score (MHH-CALL-2)	selective drug sensitivity score (CCRF-CEM)	selective drug sensitivity score (KASUMI-10)	selective drug sensitivity score (SEM cells)	selective drug sensitivity score 380	selective drug sensitivity score (MHH-CALL-4)	selective drug sensitivity score (MHH-CALL-3)	selective drug sensitivity score (TMD5)	selective drug sensitivity score (ALL-SIL)	selective drug sensitivity score (COG-LL-319h)	selective drug sensitivity score (MOLT-14)	selective drug sensitivity score (MN-60)	selective drug sensitivity score (PEER)	selective drug sensitivity score (COG-LL-332h)	selective drug sensitivity score (RCH-ACV)	selective drug sensitivity score (MOLT-16)	selective drug sensitivity score (COG-LL-394h)	selective drug sensitivity score (TANOUE)	selective drug sensitivity score (REH)
CC(=O)c1cc2c(o1)C(=O)c1ccccc1C2=O [Napabucasin] (top concentration 20000 nM)	0.42	3.72	-1.08	0.92	0.52	-2.08	0.12	-3.28	-1.28	2.22	-0.18	-0.98	-2.08	0.62	2.32	-1.38	0.12	-9.68	-4.88	-1.58
CC1(C)CCC(c2ccc(Cl)cc2)=C(CN2CCN(c3ccc(C(=O)NS(=O)(=O)c4ccc(N[C@H](CCN5CCOCC5)CSc5ccccc5)c(S(=O)(=O)C(F)(F)F)c4)cc3)CC2)C1 [Navitoclax] (top concentration 10000 nM)	16.8	21.1	17.4	26.4	14.2	26.1	18.4	29	16.9	20	22.1	12.7	-8.58	12.2	8.42	3.32	12.2	19.2	-8.58	4.92
CC(=O)c1c(C)c2cnc(Nc3ccc(N4CCNCC4)cn3)nc2n(C2CCCC2)c1=O [Palbociclib] (top concentration 10000 nM)	9.58	3.68	4.38	0.88	4.98	-0.12	-1.82	5.38	-5.22	-2.12	0.38	2.48	-0.62	5.38	3.68	16.1	8.58	-5.62	-6.12	3.08
COc1ccc(COc2cc3oc(=O)c4cc(C(C)O)ccc4c3cc2OC)cc1 (stereo not given) [Palomid-529] (top concentration 10000 nM)	-0.24	1.06	0.86	-0.24	1.76	5.86	-0.24	-0.24	-0.24	-0.24	17.2	2.76	-0.24	4.16	0.46	-0.14	4.36	-0.24	0.36	6.66
FC(F)(F)c1ccc(CNc2ccc(Cc3c[nH]c4ncc(Cl)cc34)cn2)cn1 [Pexidartinib] (top concentration 10000 nM)	4.48	-0.92	-0.72	8.78	12.6	-2.22	-2.22	-2.22	-2.22	-0.52	-2.22	-2.02	-1.52	-0.32	-2.22	1.58	-0.72	-1.32	-2.22	0.38
CO[C@H](C(=O)[C@@H](O)[C@@H](C)O)[C@@H]1Cc2cc3cc(O[C@H]4C[C@@H](O[C@H]5C[C@@H](O)[C@H](O)[C@@H](C)O5)[C@@H](O)[C@@H](C)O4)c(C)c(O)c3c(O)c2C(=O)[C@H]1O[C@H]1C[C@@H](O[C@H]2C[C@@H](O[C@H]3C[C@](C)(O)[C@H](O)[C@@H](C)O3)[C@H](O)[C@@H](C)O2)[C@H](O)[C@@H](C)O1 [Plicamycin] (top concentration 10000 nM)	-16.3	-6.26	-11.3	-2.36	-16.6	7.14	-7.26	5.34	-13.8	-1.46	7.54	-10.3	5.34	-12.8	-6.26	-17.3	-5.06	0.04	-14.4	-13.4
Cn1cc(CNCC2CCN(c3ncc(C(=O)NO)cn3)CC2)c2ccccc21 [Quisinostat] (top concentration 1000 nM)	7.18	8.28	3.98	7.38	6.38	6.68	5.98	17	5.08	5.68	12.3	6.98	-2.02	2.88	1.48	14.2	6.28	6.78	-7.62	-1.12
CC(C)(C)Cn1c(N)nc2ccc(-c3[nH]c(C(C)(C)C)nc3-c3ccc(F)cc3)nc21 [Ralimetinib] (top concentration 10000 nM)	4.66	1.46	2.26	0.86	1.76	-0.84	-0.84	-0.84	-0.74	3.36	4.06	6.96	-0.14	2.26	2.56	11.5	12.6	4.16	-0.44	2.36
O=C(CCCCCCNC(=O)c1cnc(N(c2ccccc2)c2ccccc2)nc1)NO [Rocilinostat] (top concentration 10000 nM)	5.04	11.2	4.64	4.24	4.74	8.54	3.74	14.5	0.04	9.14	8.24	8.44	1.04	7.14	3.34	9.24	6.94	3.74	-0.26	6.04
CN1CCC(CNc2ccc3ncc(-c4cccc(OC(F)(F)F)c4)n3n2)CC1 [SGI-1776] (top concentration 10000 nM)	0.12	1.22	0.52	4.82	6.92	-2.38	0.32	-3.98	-0.98	-1.48	-1.28	0.32	-3.78	-0.58	0.22	0.62	-3.28	0.82	-8.18	-2.78
O=C(/C=C\n1cnc(-c2cc(C(F)(F)F)cc(C(F)(F)F)c2)n1)NNc1cnccn1 [Selinexor] (top concentration 10000 nM)	9.28	7.48	9.38	3.78	5.38	18.1	5.18	24.5	0.38	9.88	9.68	16.7	3.58	10.2	9.68	13.7	13.9	5.78	-7.02	10.3
Cn1cnc2c(F)c(Nc3ccc(Br)cc3Cl)c(C(=O)NOCCO)cc21 [Selumetinib] (top concentration 10000 nM)	-2.1	8.5	2	-3.5	-0.3	9.6	4.2	15.4	3.1	-4.1	-1.8	7.2	-4.1	-1.6	-2.3	-3.7	-3.4	-3	-4.1	-4.1
COCC[n+]1c2c(n(Cc3cnccn3)c1C)C(=O)c1ccccc1C2=O [Sepantronium_bromide] (top concentration 10000 nM)	22.8	22.8	8.44	18.6	13.3	22	19.4	22.3	20.5	-3.26	4.64	12.5	21.2	15.1	14.2	17.9	12.7	-11.7	14.7	17.8
O=C(O)c1ccc2c(c1)nc(Nc1cccc(Cl)c1)c1ccncc12 [Silmitasertib] (top concentration 10000 nM)	1.8	6.6	4.1	3.8	1.4	7.7	2.2	-1.4	-2.2	6.2	15.8	4.1	3.7	3.6	4	0.8	4.8	2.3	-0.3	4.8
CO[C@H]1C[C@@H]2CC[C@@H](C)[C@@](O)(O2)C(=O)C(=O)N2CCCC[C@H]2C(=O)O[C@H]([C@H](C)C[C@@H]2CC[C@@H](O)[C@H](OC)C2)CC(=O)[C@H](C)/C=C(\C)[C@@H](O)[C@@H](OC)C(=O)[C@H](C)C[C@H](C)/C=C/C=C/C=C/1C [Sirolimus] (top concentration 100 nM)	1.34	0.84	3.34	-3.76	1.34	17.4	-0.76	5.74	-3.56	-0.86	5.94	-2.96	0.44	3.74	3.04	11.1	5.04	-3.76	-3.76	0.54
COCCNCc1ccc(-c2cc3nccc(Oc4ccc(NC(=O)C5(C(=O)Nc6ccc(F)cc6)CC5)cc4F)c3s2)nc1 [Sitravatinib] (top concentration 2500 nM)	5.78	6.78	0.18	20	26.2	2.18	5.48	-0.42	11	15.9	-0.32	1.08	0.78	7.38	5.98	7.38	-0.42	3.08	-0.42	2.88
CCN(CC)CCNC(=O)c1c(C)[nH]c(/C=C2\C(=O)Nc3ccc(F)cc32)c1C [Sunitinib] (top concentration 1000 nM)	0.76	1.86	-1.44	10.4	15.3	-1.44	2.06	-1.44	3.26	0.76	-1.34	0.76	-1.44	-0.24	-1.44	1.46	-1.44	-0.34	-1.44	-1.44
